For eleven molecules, TGI and GI50 results are on record in PubChem BioAssay (NCI).

Molecules are shown by their SMILES.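 Briefly, cells in 96-well plates were exposed to five compound concentrations for 48 h, and endpoints were estimated by linear interpolation. GI50 = concentration required for 50% inhibition of growth. TGI denotes the concentration required for complete inhibition of growth.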 Bounds are passed on as bounds.

Test systems include HCC-2998 colon; A498 renal; SNB-19 CNS; UACC-257 melanoma; OVCAR-8 ovarian; RXF 393 renal; A549 NSCLC; SK-MEL-5 melanoma; MOLT-4 leukemia; SK-MEL-2 melanoma.
Holding throughout (assay): inhibition of tumour cell growth, NCI panel, 48 h

For the molecule `C/C(=N/NC(=O)CC(=O)N(C(=O)c1ccccc1Cl)c1ccc(C)cc1)c1cc2ccccc2oc1=O`, the TGI in the assay on HCC-2998 colon, in the assay with A498 renal, with SNB-19 CNS, in the assay on UACC-257 melanoma, with OVCAR-8 ovarian and in the assay on RXF 393 renal was more than 100 µM in each case. The TGI in the assay with A549 NSCLC and with SK-MEL-5 melanoma was more than 100 µM throughout.
With `CCN(CC)CCOc1ccc(/C=C2\CC3C4CC=C5C[C@@H](OC(C)=O)CC[C@]5(C)C4CC[C@]3(C)C2=O)cc1OC` (some centres not stated), the GI50 was 3.74 µM in the assay on HCC-2998 colon; 3.01 µM in the assay on A498 renal; 47.1 µM with SNB-19 CNS; 1.45 µM in the assay with MOLT-4 leukemia; 6.97 µM in the assay on UACC-257 melanoma; 20 µM in the assay on OVCAR-8 ovarian. The figures for the GI50 with SK-MEL-2 melanoma, with RXF 393 renal and in the assay on A549 NSCLC were 5.1 µM, 2.58 µM and 17.7 µM, respectively. For the same molecule, the TGI in the assay on HCC-2998 colon was 14.1 µM; in the assay on A498 renal, 11.6 µM; with SNB-19 CNS, more than 100 µM; with MOLT-4 leukemia, more than 100 µM; in the assay with UACC-257 melanoma, 31.6 µM; in the assay on OVCAR-8 ovarian, 49 µM. For the same molecule, the TGI in the assay with SK-MEL-2 melanoma is more than 100 µM; with RXF 393 renal, 7.77 µM; in the assay on A549 NSCLC it was 44.9 µM.
On to `COc1ccc(NC(=O)c2sc3nc4c(cc3c2N)CCCC4)cc1`, for which the GI50 is 3.6 µM in the assay with HCC-2998 colon; 0.237 µM in the assay with A498 renal; 1.57 µM in the assay on SNB-19 CNS; 0.442 µM with MOLT-4 leukemia; 2.38 µM in the assay with OVCAR-8 ovarian; 0.369 µM in the assay with SK-MEL-2 melanoma. The GI50 with RXF 393 renal is 0.452 µM; in the assay on A549 NSCLC, 1.18 µM; in the assay on SK-MEL-5 melanoma, 0.355 µM. Moreover, the TGI is more than 100 µM in the assay on HCC-2998 colon; 1.73 µM with A498 renal; more than 100 µM with SNB-19 CNS; 30.5 µM in the assay with MOLT-4 leukemia; more than 100 µM with OVCAR-8 ovarian; 4.69 µM in the assay with SK-MEL-2 melanoma. The TGI in the assay on RXF 393 renal was 4.72 µM; in the assay on A549 NSCLC, more than 100 µM; in the assay with SK-MEL-5 melanoma, 11 µM.
`c1ccc(CC(NCCNC(Cc2ccccc2)c2ccccc2)c2ccccc2)cc1` (configuration not stated): the GI50 in the assay on HCC-2998 colon was 0.393 µM; in the assay on A498 renal, 1.25 µM; with SNB-19 CNS, 0.964 µM; with MOLT-4 leukemia it was 0.306 µM; in the assay on UACC-257 melanoma, 1.02 µM; in the assay with SK-MEL-2 melanoma, 1.16 µM. The GI50 in the assay with RXF 393 renal was 0.26 µM; with A549 NSCLC it was 1.1 µM; in the assay on SK-MEL-5 melanoma it was 0.271 µM. Also, the TGI worked out at 1.55 µM in the assay on HCC-2998 colon; 2.66 µM with A498 renal; 4.15 µM in the assay on SNB-19 CNS; 0.959 µM with MOLT-4 leukemia; 2.4 µM in the assay on UACC-257 melanoma; 2.57 µM in the assay with SK-MEL-2 melanoma. Also, the TGI in the assay with RXF 393 renal came to 0.705 µM; with A549 NSCLC, 4.69 µM; in the assay with SK-MEL-5 melanoma, 0.779 µM.
`O=C1C(c2ccccc2)=C(c2ccccc2)[C@H](c2ccccc2)[C@]1(Cc1nnn(-c2ccc([N+](=O)[O-])cc2)c1N1CCOCC1)c1ccccc1`: the TGI in the assay on HCC-2998 colon, in the assay with A498 renal, with SNB-19 CNS, with MOLT-4 leukemia, with UACC-257 melanoma and with OVCAR-8 ovarian was more than 37.5 µM each time. Besides, the TGI with RXF 393 renal, with A549 NSCLC and in the assay on SK-MEL-5 melanoma was more than 37.5 µM in each case.
With `COc1cc(O)c(C(C)=O)c(O)c1`, the TGI in the assay on HCC-2998 colon, with A498 renal, in the assay on UACC-257 melanoma, in the assay with OVCAR-8 ovarian, in the assay with SK-MEL-2 melanoma and in the assay with RXF 393 renal was more than 100 µM throughout. Besides, the TGI in the assay with A549 NSCLC and in the assay on SK-MEL-5 melanoma was more than 100 µM in each case.
As for `COc1cc([C@H]2c3[nH]c4ccccc4c3C[C@H]3COC(=O)N32)cc(OC)c1O`, the TGI was 27 µM in the assay on HCC-2998 colon; 20.9 µM with A498 renal; more than 100 µM in the assay with SNB-19 CNS; 11.2 µM in the assay with MOLT-4 leukemia; more than 100 µM in the assay with UACC-257 melanoma; 63.9 µM with OVCAR-8 ovarian. For the same molecule, the TGI in the assay with RXF 393 renal was 1.51 µM; in the assay on A549 NSCLC, 29.5 µM; in the assay on SK-MEL-5 melanoma, 17.4 µM.
For `Cc1cc(=O)oc2cc(OCCn3c(C)nn(-c4ccc(Cl)cc4)c3=O)ccc12`, the GI50 with HCC-2998 colon was 3.59 µM; in the assay with A498 renal, 1.13 µM; in the assay with SNB-19 CNS, 5.37 µM; in the assay on MOLT-4 leukemia, 4.71 µM; in the assay on OVCAR-8 ovarian, 5.17 µM; in the assay with SK-MEL-2 melanoma it was 18.2 µM. Also, the GI50 is 2.76 µM in the assay on RXF 393 renal, 6.07 µM in the assay with A549 NSCLC and 0.848 µM in the assay with SK-MEL-5 melanoma. Further, the TGI in the assay with HCC-2998 colon was more than 100 µM; in the assay on A498 renal it was 31.9 µM; with SNB-19 CNS it was more than 100 µM; with MOLT-4 leukemia it was more than 100 µM; in the assay on OVCAR-8 ovarian it was more than 100 µM; with SK-MEL-2 melanoma, more than 100 µM. Also, the TGI with RXF 393 renal was 30 µM; in the assay with A549 NSCLC, more than 100 µM; in the assay with SK-MEL-5 melanoma, more than 100 µM.
In the case of `COc1ccc(/C=C/C(=O)C(C)(C)Br)cc1`, the TGI in the assay on A498 renal amounted to 37.1 µM; in the assay on SNB-19 CNS, 88.7 µM; in the assay with MOLT-4 leukemia, 18.9 µM; in the assay on UACC-257 melanoma, 30.2 µM; with OVCAR-8 ovarian, 11.5 µM; in the assay with SK-MEL-2 melanoma it was 27.5 µM. The TGI in the assay with RXF 393 renal worked out at 6.09 µM; with A549 NSCLC it was 63.9 µM; with SK-MEL-5 melanoma it was 31.4 µM.
In the case of `CCCn1cnc2c(SCc3ccccc3)nc(N)nc21`, the GI50 in the assay with HCC-2998 colon was more than 100 µM; in the assay with A498 renal, 19.7 µM; in the assay with SNB-19 CNS it was more than 100 µM; in the assay on MOLT-4 leukemia, 95.7 µM; in the assay with UACC-257 melanoma, more than 100 µM; in the assay with OVCAR-8 ovarian, 71.8 µM. For the same molecule, the GI50 with RXF 393 renal was 24.4 µM; with A549 NSCLC, 77.8 µM; in the assay on SK-MEL-5 melanoma, 21.2 µM. Further, the TGI with HCC-2998 colon is more than 100 µM; in the assay with A498 renal, 75.2 µM; with SNB-19 CNS, more than 100 µM; with MOLT-4 leukemia it was more than 100 µM; in the assay on UACC-257 melanoma it was more than 100 µM; in the assay with OVCAR-8 ovarian, more than 100 µM. The TGI in the assay with RXF 393 renal, with A549 NSCLC and in the assay with SK-MEL-5 melanoma was more than 100 µM each time.
Turning to `CC(=O)OCCC(O[Si](c1ccccc1)(c1ccccc1)C(C)(C)C)C(C)(C)O` (configuration not stated), the TGI was more than 100 µM in the assay with A498 renal; more than 100 µM with SNB-19 CNS; 63 µM in the assay with MOLT-4 leukemia; more than 100 µM in the assay on UACC-257 melanoma; more than 100 µM in the assay with OVCAR-8 ovarian; more than 100 µM in the assay with SK-MEL-2 melanoma. Further, the TGI was 36.6 µM in the assay on RXF 393 renal, more than 100 µM in the assay on A549 NSCLC and more than 100 µM in the assay with SK-MEL-5 melanoma.
